Measurements taken from US20060216336A1, “Transdermal therapeutic system for Parkinson's Disease” (priority 2002, published 2006).

Assays:
RLS symptoms = settings: administration of rotigotine; cited from earlier work
[1] = Placebo-controlled trial in early stage idiopathic Parkinson's disease: rotigotine plasma concentrations during titration and maintenance (Example 5); assay type: in vivo, human; settings: for rotigotine plasma concentration, Max / rotigotine plasma concentration, Mean / rotigotine plasma concentration, Median / rotigotine plasma concentration, Min: prior removal
Source text: Trial periods consisted of a 4-week pre-treatment (washout) period, a 3-week dose escalation period, a 25-week dose maintenance period, and a 4-week follow-up period for a total duration of 36 weeks.

[2] = Day 1 MP (maintenance period), 13.5 mg/day
[3] = Day 15 TP (titration period), 9.0 mg/day
[4] = Day 57 MP (maintenance period), 13.5 mg/day
[5] = Day 113 MP (maintenance period), 13.5 mg/day
[6] = End of MP (maintenance period), 13.5 mg/day

CCCN(CCc1cccs1)[C@H]1CCc2c(O)cccc2C1 [rotigotine, (6S)-6{propyl[2-(2-thienyl)ethyl]amino}-5,6,7,8-tetrahydro-1-naphthalenol]
effect on RLS symptoms (RLS symptoms): suppression and reduction of RLS symptoms
rotigotine plasma concentration, Max [1, 2]: 2.130 ng/mL
rotigotine plasma concentration, Mean [1, 2]: 0.757 ng/mL
rotigotine plasma concentration, Median [1, 2]: 0.714 ng/mL
rotigotine plasma concentration, Min [1, 2]: 0.064 ng/mL
rotigotine plasma concentration, Max [1, 3]: 1.580 ng/mL
rotigotine plasma concentration, Mean [1, 3]: 0.508 ng/mL
rotigotine plasma concentration, Median [1, 3]: 0.435 ng/mL
rotigotine plasma concentration, Min [1, 3]: 0.053 ng/mL
rotigotine plasma concentration, Max [1, 4]: 2.070 ng/mL
rotigotine plasma concentration, Mean [1, 4]: 0.824 ng/mL
rotigotine plasma concentration, Median [1, 4]: 0.702 ng/mL
rotigotine plasma concentration, Max [1, 5]: 2.420 ng/mL
rotigotine plasma concentration, Mean [1, 5]: 0.825 ng/mL
rotigotine plasma concentration, Median [1, 5]: 0.713 ng/mL
rotigotine plasma concentration, Min [1, 5]: 0.122 ng/mL
rotigotine plasma concentration, Max [1, 6]: 1.800 ng/mL
rotigotine plasma concentration, Mean [1, 6]: 0.788 ng/mL
rotigotine plasma concentration, Median [1, 6]: 0.729 ng/mL
rotigotine plasma concentration, Min [1, 6]: 0.282 ng/mL
rotigotine plasma concentration over the maintenance phase ([1]; FIG. 10): stable concentration
